Test results published in patent publication US20020169175A1, “Pharmaceutically acceptable salts of heterocyclic compounds” (DR. REDDY'S LABORATORIES LTD., priority 2001, published 2002).
Structures can show the parent of a compound that is named as a salt. Where two headings read alike, the source gives them in different places. Each block holds one molecule with its values, some of them ahead of it.

Key:
[1] = Single dose oral pharmacokinetic studies in male Wistar rats; assay type: in vivo, rat; conditions: fasted, suspension in 0.25% sodium CMC; for half-life: read-out: t½ (converted)
Experimental: Single Dose Oral Pharmacokinetic Studies
Male Wistar rats (220-250 gm) were used in the experiments. The animals were maintained under standard laboratory conditions and had free access to feed and water ad libitum. Before experimentation animals were fasted overnight (˜15 h) during which they had free access to water ad libitum.
An amount equivalent to 30 mg of drug was weighed accurately and transferred into a clean mortar and triturated to obtain a fine powder. To this 0.5 ml of 0.25% sodium carboxy methyl cellulose (sodium CMC) was added to obtain a paste. To the obtained paste remaining 2.5 ml of sodium CMC was added to make up the volume to 3 ml. Based on the animal weight appropriate volume (body weight×3) of the prepared suspension was administered through oral gavage.
After dosing, at designated time points (0.5, 1, 2, 3, 5, 8, 12 and 24 h) 200 μl of blood was collected from retro orbital plexus into 0.5 ml eppendorff tubes containing EDTA (10 μl of 200 mg/ml solution in Milli Q water). Blood was centrifuged at 12,800 rpm for 5 min and obtained plasma and stored at −20° C. till further analysis.
100μl plasma was transferred into a clean and dry centrifuge tube. To this internal standard (10 μl of 100 μg/ml) was added and extracted with 2 ml of extraction recovery solvent. The contents were vortexed for 2 min, followed by centrifugation for 10 min at 2800 rpm. Clear organic layer (2×0.75 ml) was separated and dried under nitrogen gas at 50° C. The residue was reconstituted with 150 μl of mobile phase and vortexed for 20 sec, from this 50 μl was injected onto HPLC column.
Pharmacokinetic parameters were calculated by non-compartmental model analysis. The peak plasma concentration (Cmax) and the corresponding time (Tmax)were directly obtained from the raw data. The area under the plasma concentration versus time curve up to the last quantifiable time point, AUC(0−t) was obtained by the linear and log-linear trapezoidal summation. The AUC(0−t) extrapolated to infinity (i.e., AUC(0−∞)) by adding the quotient of Clast/Kel, where Clast represents the last measurable time concentration and Kel represents the apparent terminal rate constant. Kel was calculated by the linear regression of the log-transformed concentrations of the drug in the terminal phase. The half-life of the terminal elimination phase was obtained using the relationship t½=0.693/Kel.

[2] = male, Wistar, rat, plasma, po, 30 mg/kg
[3] = male, Wistar, rat, plasma, po, 30 mg/kg, read-out: AUC (0-t)
[4] = male, Wistar, rat, plasma, po, 30 mg/kg, read-out: Cmax
[5] = male, Wistar, rat, plasma, po, 30 mg/kg, read-out: Tmax

Compound: CCO[C@@H](Cc1ccc(OCCn2c(CC)nc3ccccc3c2=O)cc1)C(=O)O (as salt: salt) [Example 4, (−)-3-[4-[2-(2-Ethyl-4-oxo-3,4-dihydroquinazolin-3-yl)ethoxy]phenyl]-2ethoxypropanoic acid lysine salt]
melting point: 152 to 155 °C

Compound: CCO[C@@H](Cc1ccc(OCCn2c(CC)nc3ccccc3c2=O)cc1)C(=O)O (as salt: salt) [Example 7, (−)-3-[4-[2-(2-Ethyl-4-oxo-3,4-dihydroquinazolin-3-yl)ethoxy]phenyl]-2-ethoxypropanoic acid N-methyl glucamine salt]
melting point: 114 to 116 °C

Compound: CCO[C@@H](Cc1ccc(OCCn2c(CC)nc3ccccc3c2=O)cc1)C(=O)O (as salt: salt) [Example 10, (−)-3-[4-[2-(2-Ethyl-4-oxo-3,4-dihydroquinazolin-3-yl)ethoxy]phenyl]-2-ethoxypropanoic acid magnesium salt]
melting point: > 250 °C

Compound: CCO[C@@H](Cc1ccc(OCCn2c(CC)nc3ccccc3c2=O)cc1)C(=O)O (as salt: salt) [Example 11, (−)-3-[4-[2-(2-Ethyl-4-oxo-3,4-dihydroquinazolin-3-yl)ethoxy]phenyl]-2-ethoxypropanoic acid arginine salt]
melting point: 216 to 220 °C

melting point: 110 to 112 °C
Compound: CCCc1nn(C)c2c(=O)n(CCOc3ccc(C[C@H](OCC)C(=O)O)cc3)c(C)nc12 (as salt: salt) [Example 24, 3-[4-[2-(1,5-Dimethyl-7-oxo-3-propyl-6,7-dihydro-1H-pyrazolo[4,3-d]pyrimidin-6-yl)ethoxy]phenyl]-2-ethoxypropionic acid aminoguanidine hydrogen carbonate salt]

Compound: CCCc1nn(C)c2c(=O)n(CCOc3ccc(C[C@H](OCC)C(=O)O)cc3)c(CC)nc12 (as salt: salt) [Example 36, (−)-3-[4-[2-(1-Methyl-5-ethyl-7-oxo-3-propyl-6,7-dihydro-1H-pyrazolo[4,3-d]pyrimidin-6-yl)ethoxy]phenyl]-2-ethoxypropionic acid arginine salt]
melting point: 235 °C

Compound: CCCc1nn(C)c2c(=O)n(CCOc3ccc(C[C@H](OCC)C(=O)O)cc3)c(CC)nc12 (as salt: salt) [Example 39, (−)-3-[4-[2-(1-Methyl-5-ethyl-7-oxo-3-propyl-6,7-dihydro-1H-pyrazolo[4,3-d]pyrimidin-6-yl)ethoxy]phenyl]-2-ethoxypropionic acid aminoguanidine hydrogen carbonate salt]
melting point: 130 °C

Compound: CCCc1nn(C)c2c(=O)n(CCOc3ccc(C[C@H](OCC)C(=O)O)cc3)c(CC)nc12 (as salt: salt) [Example 41, (−)-3-[4-[2-(1-Methyl-5-ethyl-7-oxo-3-propyl-6,7-dihydro-1H-pyrazolo[4,3-d]pyrimidin-6-yl)ethoxy]phenyl]-2-ethoxypropionic acid dicyclohexylamine salt]
melting point: 138 to 140 °C

Compound: CCCc1nn(C)c2c(=O)n(CCOc3ccc(C[C@H](OCC)C(=O)O)cc3)c(CC)nc12 (as salt: salt) [Example 44, (−)-3-[4-[2-(1-Methyl-5-ethyl-7-oxo-3-propyl-6,7-dihydro-1H-pyrazolo[4,3-d]pyrimidin-6-yl)ethoxy]phenyl]-2-ethoxypropionic acid metformin salt]
melting point: 118 °C

Compound: CCCc1nn(C)c2c(=O)n(CCOc3ccc(C[C@H](OCC)C(=O)O)cc3)c(CC)nc12 (as salt: tromethamine) [Example 40, (−)-3-[4-[2-(1-Methyl-5-ethyl-7-oxo-3-propyl-6,7-dihydro-1H-pyrazolo[4,3-d]pyrimidin-6-yl)ethoxy]phenyl]-2-ethoxypropionic acid tromethamine salt]
melting point: 116 to 118 °C

Compound: CCCc1nn(C)c2c(=O)n(CCOc3ccc(C[C@H](OCC)C(=O)[O-])cc3)c(CC)nc12.[K+] (stereo in doubt)
melting point: 164 °C

Compound: CCCc1nn(C)c2c(=O)n(CCOc3ccc(C[C@H](OCC)C(=O)[O-])cc3)c(CC)nc12.[Li+] (stereo in doubt)
melting point: 215 to 218 °C

Compound: CCO[C@@H](Cc1ccc(OCCn2c(CC)nc3ccccc3c2=O)cc1)C(=O)[O-].[Li+] (stereo in doubt)
melting point: 245 to 247 °C

Compound: CCO[C@@H](Cc1ccc(OCCn2c(CC)nc3ccccc3c2=O)cc1)C(=O)O [Example 4, (−)-3-[4-[2-(2-Ethyl-4-oxo-3,4-dihydroquinazolin-3-yl)ethoxy]phenyl]-2ethoxypropanoic acid lysine salt]
Kel [1]: 0.31 h⁻¹
AUC(0-inf) [1, 2]: 38400 ng·h/mL
AUC(0-t) [1, 3]: 40600 ng·h/mL
Cmax [1, 4]: 38700 ng/mL
Tmax [1, 5]: 0.5 h
half-life [1, 2]: 1.97 h

Compound: CCO[C@@H](Cc1ccc(OCCn2c(CC)nc3ccccc3c2=O)cc1)C(=O)O [Example 7, (−)-3-[4-[2-(2-Ethyl-4-oxo-3,4-dihydroquinazolin-3-yl)ethoxy]phenyl]-2-ethoxypropanoic acid N-methyl glucamine salt]
AUC (0-∞) [1]: 51430 ng·h/mL
AUC(0-t) [1]: 51650 ng·h/mL
Cmax [1]: 40250 ng/mL
Kel [1]: 0.38 h⁻¹
Tmax [1]: 0.90 h
t½ [1]: 1.91 h

Compound: CCO[C@@H](Cc1ccc(OCCn2c(CC)nc3ccccc3c2=O)cc1)C(=O)O [Example 10, (−)-3-[4-[2-(2-Ethyl-4-oxo-3,4-dihydroquinazolin-3-yl)ethoxy]phenyl]-2-ethoxypropanoic acid magnesium salt]
AUC (0-∞) [1]: 74070 ng·h/mL
AUC(0-t) [1]: 75890 ng·h/mL
Cmax [1]: 54210 ng/mL
Kel [1]: 0.34 h⁻¹
Tmax [1]: 0.50 h
t½ [1]: 2.16 h

Compound: CCCc1nn(C)c2c(=O)n(CCOc3ccc(C[C@H](OCC)C(=O)[O-])cc3)c(CC)nc12.[Na+] [Example 35, (−)-3-[4-[2-(1-Methyl-5-ethyl-7-oxo-3-propyl-6,7-dihydro-1H-pyrazolo[4,3-d]pyrimidin-6-yl)ethoxy]phenyl]-2-ethoxypropionic acid sodium salt]
melting point: 112 to 114 °C

Compound: CCCc1nn(C)c2c(=O)n(CCOc3ccc(C[C@H](OCC)C(=O)O)cc3)c(CC)nc12 [Example 40, (−)-3-[4-[2-(1-Methyl-5-ethyl-7-oxo-3-propyl-6,7-dihydro-1H-pyrazolo[4,3-d]pyrimidin-6-yl)ethoxy]phenyl]-2-ethoxypropionic acid tromethamine salt]
Kel [1]: 0.60 h⁻¹
Tmax [1]: 0.75 h
AUC(0-inf) [1, 2]: 78600 ng·h/mL
AUC(0-t) [1, 3]: 77800 ng·h/mL
Cmax [1, 4]: 34200 ng/mL
half-life [1, 2]: 1.2 h

Kel [1]: 0.32 h⁻¹
AUC(0-inf) [1, 2]: 62900 ng·h/mL
AUC(0-t) [1, 3]: 61200 ng·h/mL
Cmax [1, 4]: 17700 ng/mL
Tmax [1, 5]: 1.33 h
half-life [1, 2]: 2.19 h
Compound: CCO[C@@H](Cc1ccc(OCCn2c(CC)nc(-c3ccccc3)cc2=O)cc1)C(=O)[O-].[K+] [Example 46, (−)2-Ethoxy-3-[4-[2-[2-ethyl-6-oxo-4-phenyl-1,6-dihydropyrimidin-1-yl]ethoxy]phenyl]propanoic acid potassium salt]

Kel [1]: 0.34 h⁻¹
AUC(0-inf) [1, 2]: 83300 ng·h/mL
AUC(0-t) [1, 3]: 82200 ng·h/mL
Cmax [1, 4]: 39500 ng/mL
Tmax [1, 5]: 0.5 h
half-life [1, 2]: 2.07 h
Compound: CCO[C@@H](Cc1ccc(OCCn2c(CC)nc(-c3ccccc3)cc2=O)cc1)C(=O)[O-].[Na+] [Example 47, (−)2-Ethoxy-3-[4-[2-[2-ethyl-6-oxo-4-phenyl-1,6-dihydropyrimidin-1-yl]ethoxy]phenyl]propanoic acid sodium salt]

Kel [1]: 0.29 h⁻¹
AUC(0-inf) [1, 2]: 92600 ng·h/mL
AUC(0-t) [1, 3]: 90100 ng·h/mL
Cmax [1, 4]: 50400 ng/mL
Tmax [1, 5]: 0.5 h
half-life [1, 2]: 2.18 h
Compound: CCO[C@@H](Cc1ccc(OCCn2c(CC)nc(-c3ccccc3)cc2=O)cc1)C(=O)O [Example 48, (−)2-Ethoxy-3-[4-[2-[2-ethyl-6-oxo-4-phenyl-1,6-dihydropyrimidin-1-yl]ethoxy]phenyl]propanoic acid L-arginine salt]
